Reference: US20170334927A1 (Shanghai Sun-sail Pharmaceutical Science & Technology Co., …, priority 2014, published 2017)
Values after ≈ are worked out from the molar mass of the structure shown.

Columns and labels:
Assay in all cases: microbe, parasite or virus in culture
Type in all cases: cell-based
[1] = tested on: drug-resistant Mycobacterium tuberculosis 246 (streptomycin-resistant); conditions: for MIC: Mycobacterium tuberculosis, read-out: MIC, drug-resistant bacterium 246 (S single-resistant); for MIC value, times of that of the control drug PA-824, strain 246: relative to PA-824
[2] = tested on: drug-resistant Mycobacterium tuberculosis 242 (isoniazid-resistant); conditions: for MIC: Mycobacterium tuberculosis, read-out: MIC, drug-resistant bacterium 242 (H single-resistant); for MIC value, times of that of the control drug PA-824, strain 242: relative to PA-824
[3] = tested on: drug-resistant Mycobacterium tuberculosis 261 (rifampicin-resistant); conditions: for MIC: Mycobacterium tuberculosis, read-out: MIC, drug-resistant bacterium 261 (R single-resistant); for MIC value, times of that of the control drug PA-824, strain 261: relative to PA-824

Row | Compound | MIC [1] | MIC value, times of that of the control drug PA-824, strain 246 [1] | MIC [2] | MIC value, times of that of the control drug PA-824, strain 242 [2] | MIC [3] | MIC value, times of that of the control drug PA-824, strain 261 [3]
1 | O=[N+]([O-])c1cn2c(n1)OC[C@@H](NCc1ccc(N3CCC(Oc4ccc(OC(F)(F)F)cc4)CC3)nc1)C2 [Compound 1, (S)-2-nitro-N-((6-(4-(4-(trifluoromethoxy)phenoxy)piperidin-1-yl)pyrid-3-yl)methyl)-6,7-dihydro-5H-imidazo[2,1-b][1,3]oxazin-6-amine] | 7.8 ng/mL (≈ 0.0146 µM) | 64 times | 7.8 ng/mL (≈ 0.0146 µM) | 128 times | 7.8 ng/mL (≈ 0.0146 µM) | 64 times
2 | O=[N+]([O-])c1cn2c(n1)OC[C@@H](NCc1cnc(N3CCN(c4ccc(OC(F)(F)F)cc4)CC3)nc1)C2 [Compound 18] | 7.8 ng/mL (≈ 0.015 µM) | 64 times | 7.8 ng/mL (≈ 0.015 µM) | 128 times | 7.8 ng/mL (≈ 0.015 µM) | 64 times
3 | Cc1nc(N2CCN(c3ccc(OC(F)(F)F)cc3)CC2)ncc1CN[C@@H]1COc2nc([N+](=O)[O-])cn2C1 [Compound 36] | 7.8 ng/mL (≈ 0.0146 µM) | 64 times | 7.8 ng/mL (≈ 0.0146 µM) | 128 times | 7.8 ng/mL (≈ 0.0146 µM) | 64 times
4 | CC1CN(c2ccc(OC(F)(F)F)cc2)CCN1c1ncc(CN[C@@H]2COc3nc([N+](=O)[O-])cn3C2)cn1 (stereo partly drawn) [Compound 20, (3S)—N-((6-(2-methyl-4-(4-(trifluoromethoxy)phenyl)piperazin-1-yl)pyrimidin-3-yl)methyl)-7-nitro-3,4-dihydro-2H-imidazo[2,1-b][1,3]oxazin-3-amine] | 1.95 ng/mL (≈ 0.00365 µM) | 256 times | 1.95 ng/mL (≈ 0.00365 µM) | 512 times | 1.95 ng/mL (≈ 0.00365 µM) | 256 times
5 | CN(Cc1cnc(N2CCN(c3ccc(OC(F)(F)F)cc3)CC2)nc1)[C@@H]1COc2nc([N+](=O)[O-])cn2C1 [Compound 44, (S)—N-methyl-2-nitro-N-((2-(4-(4-(trifluoromethoxy)phenyl)piperazin-1-yl)pyrimidin-5-yl)methyl)-6,7-dihydro-5H-imidazo[2,1-b][1,3]oxazin-6-amine] | 1.95 ng/mL (≈ 0.00365 µM) | 256 times | 1.95 ng/mL (≈ 0.00365 µM) | 512 times | 1.95 ng/mL (≈ 0.00365 µM) | 256 times
6 | N#CC1(c2ccc(OC(F)(F)F)cc2)CCN(c2ccc(CN[C@@H]3COc4nc([N+](=O)[O-])cn4C3)cn2)CC1 [Compound 10, (S)-1-(5-(((7-nitro-3,4-dihydro-2H-imidazo[2,1-b][1,3]oxazin-3-yl)amino)methyl)pyridin-2-yl)-4-(4-(trifluoromethoxy)phenyl)piperidine-4-carbonitrile] | 1.95 ng/mL (≈ 0.00359 µM) | 256 times | 1.95 ng/mL (≈ 0.00359 µM) | 512 times | 1.95 ng/mL (≈ 0.00359 µM) | 256 times
7 | CC1CN(c2ccc(OC(F)(F)F)cc2)CCN1c1ccc(CN[C@@H]2COc3nc([N+](=O)[O-])cn3C2)cn1 (stereo partly drawn) [Compound 6, (3S)—N-((6-(2-methyl-4-(4-(trifluoromethoxy)phenyl)piperazin-1-yl)pyrid-3-yl)methyl)-7-nitro-3,4-dihydro-2H-imidazo[2,1-b][1,3]oxazin-3-amine] | 7.8 ng/mL (≈ 0.0146 µM) | – | 15.6 ng/mL (≈ 0.0292 µM) | – | 7.8 ng/mL (≈ 0.0146 µM) | –
8 | O=[N+]([O-])c1cn2c(n1)OC[C@@H](NCc1ccc(N3C4CCC3CC(Oc3ccc(OC(F)(F)F)cc3)C4)nc1)C2 (stereo partly drawn) [Compound 14, (6S)-2-nitro-N-((6-(3-(4-(trifluoromethoxy)phenoxy)-8-azabicyclo[3.2.1]octan-8-yl)pyrid-3-yl)methyl)-6,7-dihydro-5H-imidazo[2,1-b][1,3]oxazin-6-amine] | 7.8 ng/mL (≈ 0.0139 µM) | – | 15.6 ng/mL (≈ 0.0278 µM) | – | 7.8 ng/mL (≈ 0.0139 µM) | –
9 | N#Cc1nc(N2CCN(c3ccc(OC(F)(F)F)cc3)CC2)ncc1CN[C@@H]1COc2nc([N+](=O)[O-])cn2C1 [Compound 40, (S)-5-(((2-nitro-6,7-dihydro-5H-imidazo[2,1-b][1,3]oxazin-6-yl)amino)methyl)-2-(4-(4-(trifluoromethoxy)phenyl)piperazin-1-yl)pyrimidine-4-carbonitrile] | 7.8 ng/mL (≈ 0.0143 µM) | 64 times | 7.8 ng/mL (≈ 0.0143 µM) | 128 times | 7.8 ng/mL (≈ 0.0143 µM) | 64 times
10 | CC1CN(c2ccc(CN[C@@H]3COc4nc([N+](=O)[O-])cn4C3)cn2)CCN1c1ccc(OC(F)(F)F)cc1 (stereo partly drawn) [Compound 5, (3S)—N-((6-(3-methyl-4-(4-(trifluoromethoxy)phenyl)piperazin-1-yl)pyrid-3-yl)methyl)-7-nitro-3,4-dihydro-2H-imidazo[2,1-b][1,3]oxazin-3-amine] | 1.95 ng/mL (≈ 0.00366 µM) | – | 3.9 ng/mL (≈ 0.00731 µM) | – | 1.95 ng/mL (≈ 0.00366 µM) | –
11 | N#CC1(c2ccc(OC(F)(F)F)cc2)CCN(c2ncc(CN[C@@H]3COc4nc([N+](=O)[O-])cn4C3)cn2)CC1 [Compound 24, (S)-1-(5-(((7-nitro-3,4-dihydro-2H-imidazo[2,1-b][1,3]oxazin-3-yl)amino)methyl)pyrimidin-2-yl)-4-(4-(trifluoromethoxy)phenyl)piperidine-4-carbonitrile] | 3.9 ng/mL (≈ 0.00716 µM) | 128 times | 3.9 ng/mL (≈ 0.00716 µM) | 256 times | 3.9 ng/mL (≈ 0.00716 µM) | 128 times
12 | CC1CN(c2ncc(CN[C@@H]3COc4nc([N+](=O)[O-])cn4C3)cn2)CCN1c1ccc(OC(F)(F)F)cc1 (stereo partly drawn) [Compound 19] | 7.8 ng/mL (≈ 0.0146 µM) | 64 times | 7.8 ng/mL (≈ 0.0146 µM) | 128 times | 7.8 ng/mL (≈ 0.0146 µM) | 64 times
13 | O=[N+]([O-])c1cn2c(n1)OC[C@@H](NCc1cnc(N3CCN(c4ccc(C(F)(F)F)cc4)CC3)nc1)C2 [Compound 31, (S)-2-nitro-N-((2-(4-(4-(trifluoromethyl)phenyl)piperazin-1-yl)pyrimidin-5-yl)methyl)-6,7-dihydro-5H-imidazo[2,1-b][1,3]oxazin-6-amine] | 7.8 ng/mL (≈ 0.0155 µM) | – | 7.8 ng/mL (≈ 0.0155 µM) | – | 7.8 ng/mL (≈ 0.0155 µM) | –
14 | O=[N+]([O-])c1cn2c(n1)OC[C@@H](NCc1ccc(N3CCN(c4ccc(OC(F)(F)F)cc4)CC3)nc1)C2 [Compound 4, (S)-2-nitro-N-((6-(4-(4-(trifluoromethoxy)phenyl)piperazin-1-yl)pyrid-3-yl)methyl)-6,7-dihydro-5H-imidazo[2,1-b][1,3]oxazin-6-amine] | 1.95 ng/mL (≈ 0.00375 µM) | 256 times | 1.95 ng/mL (≈ 0.00375 µM) | 512 times | 1.95 ng/mL (≈ 0.00375 µM) | 256 times
15 | O=[N+]([O-])c1cn2c(n1)OC[C@@H](OCc1ccc(OC(F)(F)F)cc1)C2 [PA-824, reference compound] | 500 ng/mL (≈ 1.39 µM) | – | 1000 ng/mL (≈ 2.78 µM) | – | 500 ng/mL (≈ 1.39 µM) | –
